Results from publication PMC2680961, “Homologous desensitization of signalling by the alpha (α) isoform of the human thromboxane A2 receptor: A specific role for nitric oxide signalling” (Biochimica et Biophysica Acta, 2007).
Changes are numbered by the printed parent chain.

Key:
[1] = target: T1, TPβ (Homo sapiens, UniProt P21731); experiment: Intracellular calcium mobilization, HEK.TPβ cells; assay type: cell-based
T1 construct: expressed in transfected cells
Procedure: Measurement of intracellular calcium mobilization ([Ca^2+]i) in FURA2/AM preloaded HEK 293 cell lines (2 × 10^6 cells/dish), each transiently co-transfected with pADVA (10 μg), and pCMV:Gαq (25 μg), was carried out as previously described. To investigate the effect of GRK2/βARK1 on TP-mediated [Ca^2+]i mobilization, HEK.TPα or HEK.TPβ cells (2 × 10^6 cells/dish) were co-transfected with pADVA (10 μg), pCMV:Gαq (25 μg) along with pRK5:βARK1^495–689 (25 μg), encoding a dominant negative form of GRK2/βARK1[39]. Approximately 48 h post-transfection, cells were harvested by scraping, washed twice in ice-cold PBS and resuspended in HBSSHB (modified Ca^2+/Mg^2+-free Hank's buffered salt solution, containing […], pH 7.67, 0.1% bovine serum albumin (BSA)) buffer at 10^7 cells/ml and incubated in the dark with 5 μM FURA2/AM for 45 min at 37 °C. Cells were collected by centrifugation (900×g, 5 min), washed once in an equal volume of HBSSHB, and were finally resuspended in HBSSHB buffer at 10^7 cells/ml and kept at room temperature in the dark for 40 min. For each measurement of [Ca^2+]i mobilization, aliquots of cells were diluted to 0.825 × 10^6 cells/ml in HBSSHB, 1 mM CaCl2 and FURA2 fluorescence was recorded (2 ml aliquots of cells) at 37^ °C with gentle stirring with a Perkin Elmer-Cetus LS50-B spectrofluorometer at excitation wavelengths of 340 nm and 380 nm and emission wavelength of 510 nm, respectively.
Cells were stimulated with the TP agonist U46619 (1 μM) and changes in [Ca^2+]i mobilization were monitored as a function of time. To assess agonist-mediated homologous desensitization, cells (0.825 × 10^6 cells/ml; 2 ml per assay) were stimulated with 1 μM U46619 (Primary stimulation) or, as a control, with the vehicle for 4 min; thereafter, cells were collected by centrifugation (900×g, 5 min); were washed twice in 2 ml HBSSHB, 1 mM CaCl2; and finally resuspended in 2 ml HBSSHB,1 mM CaCl2 and were left to recover over various time intervals (ranging from 0 to 60 min); thereafter, cells re-stimulated with 1 μM U46619 (Secondary stimulation) and changes in [Ca^2+]i mobilization were monitored as a function of time. To assess the role of protein kinase (PK) A, PKC or PKG on U46619-mediated desensitization of TPα signalling, cells were pre-incubated with the PKA inhibitor H-89 (10 μM), the PKC inhibitor GF 109203X (50 nM) or the PKG inhibitor KT 5823 (50 nM), for 15 min and respective kinase inhibitors were maintained throughout the primary/secondary U46619-stimulations and during the washes.
The vehicle had no effect on U46619-mediated [Ca^2+]i mobilization. Calibration of the signal was performed in each sample by adding 0.2% Triton X-100 to obtain the maximal fluorescence ratio (Rmax) and then 1 mM EGTA to obtain the minimal fluorescence ratio (Rmin). The ratio of the fluorescence at 340 nm to that at 380 nm is a measure of [Ca^2+]i, which assumes a Kd of 225 nM Ca^2+ for FURA2/AM. The results presented in the figures are representative data from at least three or four independent experiments and are plotted as changes in Ca^2+i mobilized (Δ[Ca^2+]i (nM)) as a function of time (s) upon ligand stimulation. Changes in [Ca^2+]i mobilization were determined by measuring peak rises in [Ca^2+]i mobilized (Δ[Ca^2+]i) and were calculated as mean changes in Δ[Ca^2+]i ± S.E.M. (nM).

[2] = target: T2, TPα^S329A (Homo sapiens, UniProt P21731, S329A); experiment: [3H]SQ29,548 radioligand binding, Scatchard analysis, HEK.TPα^S329A
T2 construct: expressed in transfected cells
T2 sequence (P21731 1-343 S329A): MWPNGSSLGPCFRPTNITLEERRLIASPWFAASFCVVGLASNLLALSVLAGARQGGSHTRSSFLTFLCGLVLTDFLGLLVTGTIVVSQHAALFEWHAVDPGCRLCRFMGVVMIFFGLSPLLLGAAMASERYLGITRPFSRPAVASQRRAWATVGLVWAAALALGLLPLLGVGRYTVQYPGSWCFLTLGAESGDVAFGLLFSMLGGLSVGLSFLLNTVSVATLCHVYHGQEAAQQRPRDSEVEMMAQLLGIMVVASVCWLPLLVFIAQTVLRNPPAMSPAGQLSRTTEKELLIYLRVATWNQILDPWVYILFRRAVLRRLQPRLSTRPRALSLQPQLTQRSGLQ
Procedure: (§1) Cells were harvested by centrifugation at 500×g at 4 °C for 5 min and washed three times with ice-cold Ca^2+/Mg^2+-free phosphate-buffered saline (PBS). TP radioligand binding assays were carried out at 30 °C for 30 min in 100 μl reactions in the presence of 0–40 nM [^3H] […] Protein determinations were carried out using the Bradford assay.
(§2) Radioligand binding and Scatchard analysis data were analysed using GraphPad Prisim V4.0 programme (GraphPad Software Inc., San Diego CA, USA). Statistical analyses were carried out using the unpaired Student's t test using the Statworks Analysis Package. p-values ≤ 0.01 indicated statistically significant differences.

[3] = target: T3, TPα^S331,T337A (Homo sapiens, UniProt P21731, S331A/T337A); experiment: [3H]SQ29,548 radioligand binding, Scatchard analysis, HEK.TPα^S331,T337A
T3 construct: expressed in transfected cells
T3 sequence (P21731 1-343 S331A/T337A): T2 sequence (P21731 1-343 S329A) with A329S, S331A, T337A
Procedure: as §1, §2

T1 sequence (P21731 1-407 isoform P21731-2): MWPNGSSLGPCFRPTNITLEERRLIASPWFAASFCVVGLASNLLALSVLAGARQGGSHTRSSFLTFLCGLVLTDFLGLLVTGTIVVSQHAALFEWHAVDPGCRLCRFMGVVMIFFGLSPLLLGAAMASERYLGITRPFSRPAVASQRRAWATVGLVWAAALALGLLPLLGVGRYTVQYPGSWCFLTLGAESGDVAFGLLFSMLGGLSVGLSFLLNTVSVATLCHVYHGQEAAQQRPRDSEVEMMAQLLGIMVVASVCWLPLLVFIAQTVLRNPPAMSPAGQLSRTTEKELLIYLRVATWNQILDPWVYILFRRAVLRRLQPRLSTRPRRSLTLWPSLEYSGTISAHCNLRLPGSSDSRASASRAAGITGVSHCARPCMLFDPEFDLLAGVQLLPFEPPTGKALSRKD

## CCCCC[C@H](O)/C=C/[C@@H]1[C@@H](C/C=C\CCCC(=O)O)[C@H]2CO[C@@H]1C2 [U46619]
[1]; + GRK^DN, primary 1 μM U46619
  Δ[Ca2+]i, U46619-induced: 195 ± 11 nM
[1]; + GRK^DN, secondary 1 μM U46619 at 15 min
  Δ[Ca2+]i, U46619-induced: 210 ± 12 nM
[1]; − GRK^DN, primary 1 μM U46619
  Δ[Ca2+]i, U46619-induced: 180 ± 6.7 nM
[1]; − GRK^DN, secondary 1 μM U46619 at 15 min
  Δ[Ca2+]i, U46619-induced: 0 nM

## O=C(O)CCC/C=C\C[C@@H]1[C@H](CNNC(=O)Nc2ccccc2)[C@H]2CC[C@@H]1O2 [SQ29,548]
[2]
  Bmax (pmol/mg protein ± S.E.M.): 4.43 ± 0.04 pmol/mg protein
[3]
  Bmax (pmol/mg protein ± S.E.M.): 3.23 ± 0.03 pmol/mg protein
